Assay results taken from patent publication US9034846B2, “Use of cyclodextrin for treatment and prevention of bronchial inflammatory diseases” (UNIVERSITE DE LIEGE, priority 2004, dated 2015).

Tests used:
[1] = system: OVA exposed mice; experiment: Bronchoalveolar lavage differential cell counts, OVA mouse model of asthma; format: in vivo; details: for Eosinophils (%) in BAL / Epithelial cells (%) in BAL / Lymphocytes (%) in BAL / Macrophages (%) in BAL / Neutrophils (%) in BAL / Total cells (10^4/ml) in BAL: Table 2
Protocol: (§1) In order to study modulation of airway inflammation, males BALB/c mice of 6 to 8 weeks old were sensitized by intraperitoneal injection of 10 μg ovalbumin (OVA) (Sigma Aldrich, Schnelldorf, Germany) emulsified in aluminum hydroxyde (AlumInject; Perbio, Erembodegem, Belgium) on days 1 and 8. Mice were subsequently exposed to allergens by daily inhalation of an aerosol of OVA 1%, for 30 minutes, generated by ultrasonic nebulizer (Devilbiss 2000), from day 21 to 27. Mice were subjected to inhalation of β-CD, HP-β-CD HP 1, 7.5, 50 mM and HP-β-CD 50 mM 30 minutes before OVA inhalation. Mice were sacrificed performed on day 28 as previously reported by Cataldo and al in Am. J. Pathol 2002; 161(2):491-498.
Immediately after assessment of airway responsiveness, and 24 hours after the last allergen exposure.
Mices were sacrificed and a bronchoalveolar lavage was performed using 4×1 ml PBS-EDTA 0.05 mM (Calbiochem, Darmstadt, Germany) as previously described by Cataldo D D, Tournoy K G, Vermaelen K et al. in Am J Pathol 2002; 161(2):491-498. Cells were recovered by gentle manual aspiration. After centrifugation of bronchoalveolar fluid (BALF) (1200 rpm for 10 minutes, at 4° C.), the supernatant was frozen at −80° C. for protein assessment and the cell pellet was resuspended in 1 ml PBS-EDTA 0.05 mM. The differential cell counts were performed on cytocentrifuged preparations (Cytospin) after staining with Diff-Quick (Dade, Belgium).

[2] = system: OVA exposed mice; experiment: Peribronchial inflammation score by histology, OVA mouse model; format: in vivo; details: 1, 7.5 and 50 mM, compared to placebo; FIG. 2
Protocol: as §1, with “Mice were subjected to inhalation of β-CD, HP-β-CD HP 1, 7.5, 50 mM and HP-β-CD 50 mM 30 minutes before OVA inhalation.” left out
After BAL, the thorax was opened and the left main bronchus was clamped. The left lung was excised and frozen immediately at −80° C. for protein and mRNA extraction. The right lung was infused with 4 ml paraformaldehyde 4%, embedded in paraffin and used for histology. Sections of 5 μm thickness were cut off from paraffin and were stained with haematoxylin-eosin. The extent of peribronchial inflammation was estimated by a score calculated by quantification of peribronchial inflammatory cells, as previously described by Cataldo D D, Tournoy K G, Vermaelen K et al. in Am J Pathol 2002; 161(2):491-498. A value of 0 was adjudged when no inflammation was detectable, a value of 1 when there was occasionally inflammatory cells, a value of 2 when most bronchi were surrounded by a thin layer (1 to 5 cells) of inflammatory cells and a value of 3 when most bronchi were surrounded by a thick layer (>5 cells) of inflammatory cells. Since 5-7 randomly selected tissue sections per mouse were scored, inflammation scores are expressed as a mean value and can be compared between groups. After Congo Red staining, the eosinophilic infiltration in the airway walls was quantified by manual count and reported to the perimeter of epithelial basement membrane defining an eosinophilic inflammatory score.

[3] = system: Eotaxin; experiment: Eotaxin ELISA in lung protein extracts, OVA mouse model; format: in vivo; details: all doses tested, compared to placebo; FIG. 7a
Protocol: as §1
The left lung was crushed using a Mikro-Dismembrator (Braun Biotech International, Gmbh Melsungen, Germany). For proteins extraction, the crushed lung tissue was incubated overnight at 4° C. in a solution containing 2M urea, 1M NaCl and 50 mM Tris (pH 7.5) and subsequently centrifuged 15 minutes at 16.000×g. […]
Eotaxin and IL-13 levels were assessed using commercial ELISAs (R&D systems, Abingdon, UK). Eotaxin was measured by incubation in a wheel coated with a primary antibody specifically dedicated to the recognition of the protein and after rinsing, a second antibody against eotaxin, coupled with horse radish peroxydase was used to quantify the amounts of eotaxin in the solution

[4] = system: CXCL-1; experiment: CXCL-1 ELISA in lung protein extracts, LPS-induced inflammation model; format: in vivo, mouse; details: aerosolized 15 mM, vs placebo, FIG. 13
Protocol: (§2) In lipopolysaccharide (LPS)-induced inflammation model, mice were exposed to 3 μg LPS diluted in 100 μl of PBS or PBS (phosphate buffer saline) only administered by direct tracheal instillations at day 1 and 5 of the protocol. Mice were daily exposed either to aerosolized hydroxypropyl-beta-cyclodextrin (15 mM) or PBS for 30 min from day 0 to 5 (6 hours after LPS or sham exposure at days 1 and 5). Mice were sacrificed at day 6.
(§3) After sacrifice, thorax was opened and the right lungs were excised and snap frozen in liquid nitrogen for protein extraction. The left lung was insufflated at constant pressure with 4% paraformaldehyde and embedded in paraffin for further histological analysis. A peribronchial inflammation score was applied on each hematoxylin-eosin stained slide as previously reported (Cataldo et al Am J Pathol 2002). A value from 0 to 2 was adjudged to each bronchus. Score of 0 corresponded to bronchi without inflammation; score 1 to occasional mononuclear cells observed around bronchi, and score 2 to 1 to 5 layer(s) of inflammatory cells around bronchi. Six bronchi per mice were counted and statistical analysis was performed by using GraphPad Program. […] ELISA for CXCL-1 on lung protein extracts were assessed using antibodies from R&D Systems and the R&D Duoset® Elisa Development kit (R&D Systems, Minneapolis, Minn., USA).

[5] = system: LPS-induced peribronchial inflammation; experiment: Peribronchial inflammation score, LPS-induced inflammation model; format: in vivo, mouse; details: aerosolized 15 mM, vs placebo, FIG. 14
Protocol: as §2, §3

Question: For hydroxypropyl-βcyclodextrin [HP-β-CD], which BAL eosinophils ([1]; 1, 7.5 and 50 mM inhalation, FIG. 1) is on record?
Answer: dose dependent decrease

Question: And the “Eosinophils (%) in BAL” value ([1]; 1 mM)?
Answer: 34.2 ± 7.705 %

Question: And the “Epithelial cells (%) in BAL” value ([1]; 1 mM)?
Answer: 25.08 ± 3.413%

Question: What about the “Lymphocytes (%) in BAL” value ([1]; 1 mM) of the same substance?
Answer: 0.48 ± 0.1869%

Question: And the “Macrophages (%) in BAL” value ([1]; 1 mM)?
Answer: 39.75 ± 5.427%

Question: What about the “Neutrophils (%) in BAL” value ([1]; 1 mM) of the same substance?
Answer: 0.36 ± 0.1563%

Question: What about the “Total cells (10^4/ml) in BAL” value ([1]; 1 mM) of the same substance?
Answer: 74.92 ± 14.396 10^4/ml

Question: And the “Eosinophils (%) in BAL” value ([1]; 10 mM)?
Answer: 27.24 ± 4.98 %

Question: What about the “Epithelial cells (%) in BAL” value ([1]; 10 mM) of the same substance?
Answer: 34.44 ± 3.723%

Question: What about the “Lymphocytes (%) in BAL” value ([1]; 10 mM) of the same substance?
Answer: 0.21 ± 0.08571%

Question: What about the “Macrophages (%) in BAL” value ([1]; 10 mM) of the same substance?
Answer: 37.114 ± 3.878%

Question: What about the “Neutrophils (%) in BAL” value ([1]; 10 mM) of the same substance?
Answer: 0.83 ± 0.5838%

Question: And the “Total cells (10^4/ml) in BAL” value ([1]; 10 mM)?
Answer: 114.43 ± 33.245 10^4/ml

Question: And the “Eosinophils (%) in BAL” value ([1]; 50 mM)?
Answer: 12.18 ± 4.366 %

Question: And the “Epithelial cells (%) in BAL” value ([1]; 50 mM)?
Answer: 45.04 ± 5.534%

Question: What about the “Lymphocytes (%) in BAL” value ([1]; 50 mM) of the same substance?
Answer: 0.12 ± 0.12%

Question: And the “Macrophages (%) in BAL” value ([1]; 50 mM)?
Answer: 41.86 ± 9.043%

Question: What about the “Neutrophils (%) in BAL” value ([1]; 50 mM) of the same substance?
Answer: 0.72 ± 0.3992%

Question: And the “Total cells (10^4/ml) in BAL” value ([1]; 50 mM)?
Answer: 37.33 ± 10.683 10^4/ml

Question: What about the BAL eosinophil counts ([1]; after allergen exposure, inhalation at 50 mM, FIG. 1) of the same substance?
Answer: significantly decreased

Question: And the “Other inflammatory cells in the BAL” value ([1]; after inhalation, compared to placebo)?
Answer: not present in different amounts

Question: And the peribronchial inflammation score [2]?
Answer: decreased inflammation score

Question: And the “levels of eotaxin in lung protein extracts” value [3]?
Answer: decrease

Question: And the “Levels of CXCL-1 in lung protein extracts” value [4]?
Answer: significantly decreased

Question: What about the Peribronchial inflammation [5] of the same substance?
Answer: significantly lower
